Laboratory results published in patent US20250009835A1, “PHARMACEUTICAL COMPOSITION AND HEALTH FUNCTIONAL FOOD FOR PREVENTION OR TREATMENT OF CANCER COMPRISING MIXED HERBAL EXTRACT” (H&O BIOSIS CO., LTD., priority 2021, published 2025).

Tests used:
SNU475 cell line [1] = details: known property of the SNU475 cell line; cited from earlier work
SNU475 cell line [2] = assay: Cell viability in anticancer drug-resistant cancer cells; type: cell-based; details: 0, 1, and 3 µM range, FIG. 4A
Description: (§1) For cell viability measurements on cancer cell lines, three hepatocellular carcinoma cell lines (Huh-7, Hep3B, and SNU475) were seeded in a 384-well plate at a density of 2,000 cells/40 μl/well. After incubation for 16 hours, the extract of the present invention was treated at a concentration of 10 μl/well, followed by incubation at 37° C. for 48 hours. After 48 hours, 40 μl/well of the medium was removed and 4% paraformaldehyde was added to be a 30 μl/well, followed by incubation at room temperature for 10 minutes. Thereafter, after washing with DPBS, nuclear staining was performed with Hoechst33342 at a concentration of […] at room temperature for 10 minutes. After washing twice with DPBS, images were acquired with Operetta. The cell viability was identified by counting the number of cells using Operetta software.

[3] = system: Huh7 and Hep3B cell lines; assay: Cell viability in hepatocellular carcinoma cell lines without drug resistance; type: cell-based; details: 0, 1, and 3 µM range, FIG. 4A
Description: as §1

Row | Compound | resistance of SNU475 to regorafenib (SNU475 cell line [1]) | anticancer effect of sorafenib in SNU475 (SNU475 cell line [2]) | anticancer effect of sorafenib in Huh7 and Hep3B [3]
1 | CNC(=O)c1cc(Oc2ccc(NC(=O)Nc3ccc(Cl)c(C(F)(F)F)c3)c(F)c2)ccn1 [regorafenib] | strong resistance |  | 
2 | CNC(=O)c1cc(Oc2ccc(NC(=O)Nc3ccc(Cl)c(C(F)(F)F)c3)cc2)ccn1 [sorafenib] |  | exhibited resistance | anticancer effect was exhibited
